Laboratory results as given in US10336702B2, “Pharmaceutically active compounds” (BERGENBIO ASA, priority 2015, dated 2019).

Columns and labels:
[1] = molecular target: T1, Akt1 (Homo sapiens, UniProt P31749); experiment: Akt activation assay (PDK1-mediated activation, LANCE Ultra crosstide TR-FRET), Akt1; format: biochemical; settings: read-out: Biological Assay 1 IC50 (nM) Akt1
T1 construct: unspecified tag, removed (detagged) (cleaved yes); purchased SignalChem and Proteros (Akt1); Merck Millipore (PDK1) 14-452 (PDK1); none given for Akt1
Summary of the method: (§1)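 TR-FRET read-out (665/615 nm ratio) after Eu-anti-phospho-crosstide antibody, 1 h. Reaction: compound preincubated with Akt isoform, then 5 nM PDK1, lipid vesicles with 0.55 μM PtdIns(3,4,5)P3, 100 μM ATP, 100 nM crosstide, 30 min, EDTA stop. IC50 from 4-parameter equation.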

[2] = molecular target: T2, Akt2 (Homo sapiens, UniProt P31751); experiment: Akt activation assay (PDK1-mediated activation, LANCE Ultra crosstide TR-FRET), Akt2; format: biochemical; settings: read-out: Biological Assay 1 IC50 (nM) Akt2
T2 construct: unspecified tag, removed (detagged) (cleaved yes); purchased SignalChem and Proteros (Akt2); Merck Millipore (PDK1) 14-452 (PDK1); none given for Akt2
Summary of the method: as §1

[3] = molecular target: T3, Akt3 (Homo sapiens, UniProt Q9Y243); experiment: Akt activation assay (PDK1-mediated activation, LANCE Ultra crosstide TR-FRET), Akt3; format: biochemical; settings: read-out: Biological Assay 1 IC50 (nM) Akt3
T3 construct: unspecified tag, removed (detagged) (cleaved yes); purchased SignalChem and Proteros (Akt3); Merck Millipore (PDK1) 14-452 (PDK1); none given for Akt3
Summary of the method: as §1

[4] = molecular target: T4, p-Akt1 in LNCaP cells (Homo sapiens, UniProt P31749); experiment: Phospho-Akt cellular SureFire assay, p-Akt1 in LNCaP cells; format: cell-based; settings: read-out: Biological Assay 2 IC50 (nM) Akt1 LNCaP
T4 construct: SureFire assays to detect cellular p-Akt1, p-Akt2 and p-Akt3 levels in WM115 cells (Akt2/3) and LNCaP cells (Akt1); endogenous in cells; host or cells: LNCaP (ECACC 89110211)
Summary of the method: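 Phospho-Thr308 Akt1 detected by AlphaScreen SureFire proximity beads in LNCaP lysates after 15 min compound treatment at 37 °C in 0.1% FBS medium, unstimulated, 0.3% DMSO. Cells plated at 5×10^4/well overnight; IC50 from a 4-parameter equation.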

[5] = molecular target: T5, p-Akt2 in WM115 cells (Homo sapiens, UniProt P31751); experiment: Phospho-Akt cellular SureFire assay, p-Akt2 in WM115 cells; format: cell-based; settings: insulin stimulated, read-out: Biological Assay 2 IC50 (nM) Akt2 WM115
T5 construct: SureFire assays to detect cellular p-Akt1, p-Akt2 and p-Akt3 levels in WM115 cells (Akt2/3) and LNCaP cells (Akt1); endogenous in cells; host or cells: WM115 (ECACC 91061232), insulin-stimulated
Summary of the method: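 Readout is a bead-proximity SureFire assay pairing a pThr308 Akt antibody with a total Akt2 antibody, lysate and beads incubated 2 h plus 2 h at room temperature in the dark. Before lysis, serum-starved WM115 cells received 100 nM insulin (10 min), then test compound (15 min, 0.3% DMSO); IC50 by 4-parameter equation.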

[6] = molecular target: T6, p-Akt3 in WM115 cells (Homo sapiens, UniProt Q9Y243); experiment: Phospho-Akt cellular SureFire assay, p-Akt3 in WM115 cells; format: cell-based; settings: insulin stimulated, read-out: Biological Assay 2 IC50 (nM) Akt3 WM115
T6 construct: SureFire assays to detect cellular p-Akt1, p-Akt2 and p-Akt3 levels in WM115 cells (Akt2/3) and LNCaP cells (Akt1); endogenous in cells; host or cells: WM115 (ECACC 91061232), insulin-stimulated
Summary of the method: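 pThr308-Akt3 in lysates was quantified by bead-proximity SureFire detection, pairing a phospho-specific antibody with a total Akt3 antibody. Before lysis, WM115 cells in 0.1% FBS medium were treated for 15 min at 37 °C with compound (final DMSO 0.3%), following a 10 min stimulation with 100 nM insulin. IC50 was obtained by 4-parameter fitting.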

T1 sequence (P31749 whole entry): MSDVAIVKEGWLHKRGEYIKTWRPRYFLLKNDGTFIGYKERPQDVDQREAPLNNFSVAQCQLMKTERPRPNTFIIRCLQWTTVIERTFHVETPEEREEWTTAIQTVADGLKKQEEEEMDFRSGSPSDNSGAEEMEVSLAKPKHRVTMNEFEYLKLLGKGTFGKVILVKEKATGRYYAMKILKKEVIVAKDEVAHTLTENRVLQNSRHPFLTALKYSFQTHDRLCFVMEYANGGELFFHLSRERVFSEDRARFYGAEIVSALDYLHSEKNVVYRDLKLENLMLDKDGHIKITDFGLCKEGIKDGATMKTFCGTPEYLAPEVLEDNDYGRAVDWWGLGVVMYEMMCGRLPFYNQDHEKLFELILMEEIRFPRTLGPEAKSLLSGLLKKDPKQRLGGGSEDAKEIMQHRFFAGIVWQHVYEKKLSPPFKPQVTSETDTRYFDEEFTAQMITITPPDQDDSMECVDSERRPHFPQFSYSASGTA
T4 sequence (P31749 whole entry): as above
T2 sequence (P31751 whole entry): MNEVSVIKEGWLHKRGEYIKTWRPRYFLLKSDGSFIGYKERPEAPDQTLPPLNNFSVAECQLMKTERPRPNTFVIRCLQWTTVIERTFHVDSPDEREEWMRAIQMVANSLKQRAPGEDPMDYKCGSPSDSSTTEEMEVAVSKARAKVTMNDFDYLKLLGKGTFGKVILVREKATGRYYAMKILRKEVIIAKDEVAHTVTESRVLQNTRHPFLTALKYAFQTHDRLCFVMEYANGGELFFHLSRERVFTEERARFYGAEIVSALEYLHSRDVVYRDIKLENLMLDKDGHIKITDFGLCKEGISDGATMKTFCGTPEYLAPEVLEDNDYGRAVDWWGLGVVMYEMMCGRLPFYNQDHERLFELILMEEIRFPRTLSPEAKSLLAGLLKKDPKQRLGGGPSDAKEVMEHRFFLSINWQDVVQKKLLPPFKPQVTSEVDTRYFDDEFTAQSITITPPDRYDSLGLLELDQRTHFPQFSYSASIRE
T5 sequence (P31751 whole entry): as above
T3 sequence (Q9Y243 whole entry): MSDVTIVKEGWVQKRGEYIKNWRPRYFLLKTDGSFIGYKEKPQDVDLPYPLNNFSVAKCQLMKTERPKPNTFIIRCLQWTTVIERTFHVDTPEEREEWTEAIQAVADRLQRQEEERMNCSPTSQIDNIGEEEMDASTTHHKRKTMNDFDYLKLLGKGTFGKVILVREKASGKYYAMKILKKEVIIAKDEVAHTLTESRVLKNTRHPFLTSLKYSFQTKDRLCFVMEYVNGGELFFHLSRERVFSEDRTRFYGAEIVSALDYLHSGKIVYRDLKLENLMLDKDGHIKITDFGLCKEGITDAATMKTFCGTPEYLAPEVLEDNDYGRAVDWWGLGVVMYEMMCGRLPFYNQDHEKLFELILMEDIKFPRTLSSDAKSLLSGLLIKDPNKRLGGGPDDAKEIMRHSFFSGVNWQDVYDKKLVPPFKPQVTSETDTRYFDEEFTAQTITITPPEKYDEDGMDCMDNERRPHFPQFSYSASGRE
T6 sequence (Q9Y243 whole entry): as above

Structure (SMILES) | IC50 [1] [nM] | IC50 [2] [nM] | IC50 [3] [nM] | IC50 [4] [nM] | IC50 [5] [nM] | IC50 [6] [nM]
N[C@]1(c2ccc(-c3nnc(NC(=O)C[C@H]4CC[C@H](N5CCCC5=O)CC4)cc3-c3ccccc3)cc2)C[C@@H](F)C1 [Example 74, N-(6-(4-(trans-1-amino-3-fluorocyclobutyl)phenyl)-5-phenylpyridazin-3-yl)-2-(trans-4-(2-oxopyrrolidin-1-yl)cyclohexyl)acetamide] | > 30000 | 190 | 4 | > 30000 | 1700 | 40
C[C@]1(O)C[C@@](N)(c2ccc(-c3cnc(NC(=O)C[C@H]4CC[C@H](N5CCCC5=O)CC4)cc3-c3ccccc3)cc2)C1 [Example A82, N-(5-(4-(trans-1-amino-3-hydroxy-3-methylcyclobutyl)phenyl)-4-phenylpyridin-2-yl)-2-(trans-4-(2-oxopyrrolidin-1-yl)cyclohexyl)acetamide] | 3100 | 91 | 7 | 1800 | 460 | 14
CC(=O)N(C)[C@H]1CC[C@H](CC(=O)Nc2cc(-c3ccsc3)c(-c3ccc(C(C)(C)N)cc3)nn2)CC1 [Example A96, N-(6-(4-(2-aminopropan-2-yl)phenyl)-5-(thiophen-3-yl)pyridazin-3-yl)-2-(trans-4-(N-methylacetamido)cyclohexyl)acetamide] | > 30000 | 10000 | 92 | > 30000 | 15000 | 180
CC(=O)N(C)[C@H]1CC[C@H](CC(=O)Nc2cnc(-c3ccc([C@H](C)N)cc3)c(-c3ccccc3)c2)CC1 [Example 7, N-(6-(4-((S)-1-aminoethyl)phenyl)-5-phenylpyridin-3-yl)-2-(trans-4-(N-methylacetamido)cyclohexyl)acetamide] | > 30000 | 9200 | 350 | > 30000 | 10000 | 300
CN(C1CCC(CC(=O)Nc2cnc(-c3ccc(C(C)(C)N)cc3)c(-c3ccccc3)c2)CC1)C1(C)COC1 (stereo not drawn) [Example 35, N-(6-(4-(2-aminopropan-2-yl)phenyl)-5-phenylpyridin-3-yl)-2-(4-(methyl(3-methyloxetan-3-yl)amino)cyclohexyl)acetamide] | > 30000 | 25000 | 17000 | > 30000 | 17000 | 1500
N[C@]1(c2ccc(-c3nnc(NC(=O)C[C@H]4CC[C@H](N5CCOC5=O)CC4)cc3-c3ccccc3)cc2)C[C@@H](F)C1 [Example 45, N-(6-(4-(trans-1-amino-3-fluorocyclobutyl)phenyl)-5-phenylpyridazin-3-yl)-2-(trans-4-(2-oxooxazolidin-3-yl)cyclohexyl)acetamide] | > 17000 | 380 | 67 | > 30000 | > 3600 | 38
CCC(=O)N(C)[C@H]1CC[C@H](CC(=O)Nc2cc(-c3ccccc3)c(-c3ccc(C4(N)CC4)cc3)cn2)CC1 [Example A81, N-(trans-4-(2-((5-(4-(1-aminocyclopropyl)phenyl)-4-phenylpyridin-2-yl)amino)-2-oxoethyl)cyclohexyl)-N-methylpropionamide] | > 30000 | 1200 | 69 | > 30000 | 9100 | 390
CC(=O)N(C)[C@H]1CC[C@H](CC(=O)Nc2cnc(-c3ccc(C(C)(C)N)cc3)c(-c3ccccc3)c2)CC1 [Example 3, N-(6-(4-(2-aminopropan-2-yl)phenyl)-5-phenylpyridin-3-yl)-2-(trans-4-(N-methylacetamido)cyclohexyl)acetamide] | > 30000 | > 30000 | 72 | > 26000 | 10000 | 170
CN(C(=O)C1CCC1)[C@H]1CC[C@H](CC(=O)Nc2cnc(-c3ccc(C(C)(C)N)cc3)c(-c3ccccc3)c2)CC1 [Example 47, N-(trans-4-(2-((6-(4-(2-aminopropan-2-yl)phenyl)-5-phenylpyridin-3-yl)amino)-2-oxoethyl)cyclohexyl)-N-methylcyclobutanecarboxamide] | > 30000 | 6100 | 75 | > 30000 | 5300 | 240
CC(=O)N(C)[C@H]1CC[C@H](CC(=O)Nc2cc(-c3ccccc3)c(-c3ccc(C4(N)CC4)c(F)c3)nn2)CC1 [Example A54, N-(6-(4-(1-aminocyclopropyl)-3-fluorophenyl)-5-phenylpyridazin-3-yl)-2-(trans-4-(N-methylacetamido)cyclohexyl)acetamide] | > 30000 | 6300 | 160 | > 30000 | > 13000 | 520
CC(C)(N)c1ccc(-c2ncc(NC(=O)C[C@H]3CC[C@H](NC(=O)C4CC4)CC3)cc2-c2ccccc2)cc1 [Example A20, N-(trans-4-(2-((6-(4-(2-aminopropan-2-yl)phenyl)-5-phenylpyridin-3-yl)amino)-2-oxoethyl)cyclohexyl)cyclopropane-carboxamide] | > 36000 | 2300 | 55 | > 30000 | 5400 | 200

The next lines start with the values.

IC50 [1] [nM] | IC50 [2] [nM] | IC50 [3] [nM] | IC50 [4] [nM] | IC50 [5] [nM] | IC50 [6] [nM] | Structure (SMILES)
3200 | 120 | 10 | 1900 | 1300 | 27 | CCC(=O)N(C(C)C)[C@H]1CC[C@H](CC(=O)Nc2cc(-c3ccccc3)c(-c3ccc([C@]4(N)C[C@](C)(O)C4)cc3)nn2)CC1 [Example 104, N-(trans-4-(2-((6-(4-(trans-1-amino-3-hydroxy-3-methylcyclobutyl)phenyl)-5-phenylpyridazin-3-yl)amino)-2-oxoethyl)cyclohexyl)-N-isopropylpropionamide]
8800 | 130 | 7 | 2900 | 1200 | 77 | CCOC(=O)N(C)[C@H]1CC[C@H](CC(=O)Nc2cc(-c3ccccc3)c(-c3ccc([C@]4(N)C[C@](C)(O)C4)cc3)cn2)CC1 [Example A73, Ethyl (trans-4-(2-((5-(4-(trans-1-amino-3-hydroxy-3-methylcyclobutyl)phenyl)-4-phenylpyridin-2-yl)amino)-2-oxoethyl)cyclohexyl)(methyl)carbamate]
6100 | 87 | 8 | 1400 | 390 | 13 | CCC(=O)N(C(C)C)[C@H]1CC[C@H](CC(=O)Nc2cnc(-c3ccc([C@]4(N)C[C@](C)(O)C4)cc3)c(-c3ccccc3)c2)CC1 [Example 122, N-(trans-4-(2-((6-(4-(trans-1-amino-3-hydroxy-3-methylcyclobutyl)phenyl)-5-phenylpyridin-3-yl)amino)-2-oxoethyl)cyclohexyl)-N-isopropylpropionamide]
> 30000 | 4000 | 51 | > 30000 | 7100 | 150 | CCC(=O)N(C)[C@H]1CC[C@H](CC(=O)Nc2cc(-c3ccccc3)c(-c3ccc(C(C)(C)N)cc3)nn2)CC1 [Example A84, N-(trans-4-(2-((6-(4-(2-aminopropan-2-yl)phenyl)-5-phenylpyridazin-3-yl)amino)-2-oxoethyl)cyclohexyl)-N-methylpropionamide]
1600 | 190 | 7 | 5300 | 600 | 8 | CC(=O)N(C)[C@H]1CC[C@H](CC(=O)Nc2cc(-c3ccccc3)c(-c3ccc([C@]4(N)C[C@](C)(O)C4)cc3)nn2)CC1 [Example 57, N-(6-(4-(trans-1-amino-3-hydroxy-3-methylcyclobutyl)phenyl)-5-phenylpyridazin-3-yl)-2-(trans-4-(N-methylacetamido)cyclohexyl)acetamide]
